# Measured values published in ChEMBL document CHEMBL1147322, “X-ray crystal structure of acrovestone, a cytotoxic principle from Acronychia pedunculata” (1989).
# Columns and labels:
# Assay type in all cases: functional
# KB = experiment: Cytotoxicity against human KB cells at 0.5 ug/ml
# A549 = experiment: Cytotoxicity against human A549 cells; conditions: read-out: ED50 (the source's name)
# L1210 = experiment: Cytotoxicity against mouse L1210 cells; conditions: read-out: ED50 (the source's name)
# P388 = experiment: Cytotoxicity against mouse P388 cells; conditions: read-out: ED50 (the source's name)
smiles,measurement,setting,value
COc1c(CC=C(C)C)c(O)c([C@H](CC(C)C)c2c(O)c(CC=C(C)C)c(O)c(C(C)=O)c2O)c(O)c1C(C)=O [ACROVESTONE],inhibition at 0.5 µg/mL,KB,100%
same,EC50,A549,0.98 mg/L
same,EC50,L1210,2.95 mg/L
same,EC50,P388,3.28 mg/L
